Drawing on patent publication US20050090532A1, “Medicinal uses of dihydropyrazoles” (The Procter & Gamble Company, priority 2001, published 2005), this text covers EC50 for 20 molecules.

The subject of the test is VEGF. Nature of the test: VEGF-ELISA assay, VEGF secretion from HL-1 cardiomyocyte cell line. The test is classed as cell-based, murine. As to conditions: VEGF production; HL-1 cells, 18 hr, 10 concentrations 200 nM to 100 μM; read-out: EC50 (concentration of compound that induces the production of an amount of VEGF equal to half the maximum amount of VEGF induced by the compound). Here is the method:
Any compound of the present invention can be screened by a VEGF-ELISA assay. VEGF secretion is assayed in the HL-1 cardiomyocyte cell line as described in Claycomb. W. C., “HL-1 cells: a cardiac muscle cell line that contracts and retains phenotypic characteristics of the adult cardiomyocyte”, Proc. Natl. Acad. Sci U.S.A., Vol. 95, pp. 2979-84 (1998). For experiments, HL-1 cells are plated in 96-well plates at a density of 2×10^4 cells per well in growth medium: EXCEL 320 media (JRH Biosciences, Lenexia, Kans.) plus 10% fetal bovine serum (BioWhitaker), 100 nM retinoic acid (Sigma, St. Louis, Mo.), 10 μM norepinephrine (Sigma), 10 μg/ml insulin (Life Technologies, Grand Island, N.Y.), 1× non-essential amino acid supplement (Life Technologies), 50 μg/ml endothelial cell growth supplement (Upstate Biotechnology, Lake Placid, N.Y.), 100 units/ml penicillin, 100 units/ml streptomycin (Life Technologies). After 24 hrs, the media is replaced with a low-growth media (HL-1 media with 2% fetal bovine serum and without endothelial cell growth supplement) containing test compounds with 0.5% dimethyl sulfoxide (DMSO). After 18 hrs, conditioned media from the treated cells was assayed for VEGF content with a Murine VEGF-ELISA kit (R&D Systems, Minneapolis, Minn.). The amount of VEGF secreted into the media over an 18 hr period is normalized to positive control wells which are treated with a maximally effective concentration (1 mM) of deferoxamine mesylate (Sigma, St. Louis) and are reported as “percent activity,” where the VEGF in unstimulated wells is defined as 0% and the VEGF in wells treated with 1 mM deferoxamine is defined as 100%. Potency is determined by stimulating cells with 10 concentrations of test compounds (200 nM to 100 μM) and fitting the data to a variable slope sigmoidal dose-response curve using GraphPad Prism version 3.00 for Windows 95 (GraphPad Software, San Diego, Calif.). Determinations for each test compound are performed in three separate experiments and the means ± standard deviation of the […] and maximum response are evaluated. Compounds for pharmaceutical use are selected based upon the greatest percent activity.
Background: In an ELISA, binding on a coated surface is turned into a signal by an enzyme label.
Take `N#CCCN1N=C(c2ccccc2O)CC1c1ccccn1` (centres unmarked) [Example 13, 3-[3-(2-Hydroxy-phenyl)-5-pyridin-2-yl-4,5-dihydro-pyrazol-1-yl]-propionitrile]: the EC50 worked out at 18 µM. For the molecule `Clc1cccc(C2CC(c3ccccn3)=NN2c2ccccc2)c1` (centres unmarked) [Example 16, 2-[5-(3-Chloro-phenyl)-1-phenyl-4,5-dihydro-1H-pyrazol-3-yl]-pyridine], the EC50 was 1.7 µM. Next, `Oc1ccccc1C1=NN(c2ccccn2)C(c2ccccc2O)C1` (centres unmarked) [Example 9, 2-[5(2-hydroxy-phenyl)-1-pyridin-2-yl-4,5-dihydro-1H-pyrazol-3-yl]-phenol]: 5.4 µM. Next, `CN1N=C(c2ccc3ccccc3c2)CC1c1ccc(C(F)(F)F)cc1` (centres unmarked) [Example 20, 1-Methyl-3-naphthalen-2-yl-5-(4-trifluoromethyl-phenyl)-4,5-dihydro-1H-pyrazole]: 13 µM; `CN1N=C(c2ccccc2O)CC1c1ccccn1` (centres unmarked) [Example 10, 2-(1-Methyl-5-pyridin-2-yl-4,5-dihydro-1H-pyrazol-3-yl)-phenol]: 92 µM. The value for `CN1N=C(c2ccccc2O)CC1c1nccs1` (centres unmarked) [Example 11, 2-(1-Methyl-5-thiazol-2-yl-4,5-dihydro-1H-pyrazol-3-yl)-phenol] was 12 µM; that for `Cc1ccc(C2CC(c3ccccc3O)=NN2c2ccccn2)cc1` (centres unmarked) [Example 5, 2-(1-Pyridin-2-yl-5-p-tolyl-4,5-dihydro-1H-pyrazol-3-yl)-phenol] was 5.7 µM; that for `COc1ccc(C2CC(c3ccc4ccccc4c3)=NN2C)cc1` (centres unmarked) [Example 18, 5-(4-Methoxy-phenyl)-1-methyl-3-naphthalen-2-yl-4,5-dihydro-1H-pyrazole] was 11 µM. Consider `CN1N=C(c2ccc3ccccc3c2)CC1c1ccc(F)cc1` (centres unmarked) [Example 19, 5-(4-Fluoro-phenyl)-1-methyl-3-naphthalen-2-yl-4,5-dihydro-1H-pyrazole], for which the EC50 was 3.6 µM. Next, `c1ccc(C2CC(c3ccccn3)=NN2c2ccccc2)cc1` (centres unmarked) [Example 1, 2-(1,5-Diphenyl-4,5-dihydro-1H-pyrazol-3-yl)-pyridine]: 23 µM; `OCCN1N=C(c2ccccc2O)CC1c1ccccn1` (centres unmarked) [Example 12, 2-[1-(2-Hydroxy-ethyl)-5-pyridin-2-yl-4,5-dihydro-1H-pyrazol-3-yl]-phenol]: 65 µM; `CN(C)c1ccc(C2CC(c3ccccc3)=NN2c2ccccc2)cc1` (centres unmarked) [Example 17, [4-(2,5-Diphenyl-3,4-dihydro-2H-pyrazol-3-yl)-phenyl]-dimethyl-amine]: 6 µM. As for `Cc1ccc(N2N=C(c3ccccn3)CC2c2ccccc2)cc1` (centres unmarked) [Example 14, 2-(5-Phenyl-1-p-tolyl-4,5-dihydro-1H-pyrazol-3-yl)-pyridine], the EC50 is 2 µM. The value for `COc1ccccc1C1CC(c2ccccc2O)=NN1c1ccccn1` (centres unmarked) [Example 7, 2-[5-(2-Methoxy-phenyl)-1-pyridin-2-yl-4,5-dihydro-1H-pyrazol-3-yl]-phenol] was 5.5 µM.

As for `Brc1ccc(N2N=C(c3ccccn3)CC2c2ccccc2)cc1` (centres unmarked) [Example 15, 2-[1-(4-Bromo-phenyl)-5-phenyl-4,5-dihydro-1H-pyrazol-3-yl]-pyridine], the EC50 worked out at 6.3 µM. Next, `c1ccc(C2=NN(c3ccccn3)C(c3ccccc3)C2)cc1` (centres unmarked) [Example 2, 2-(3,5-Diphenyl-4,5-dihydro-pyrazol-1-yl)-pyridine]: 6 µM. The value for `COc1ccc(C2CC(c3ccccc3O)=NN2c2ccccn2)cc1` (centres unmarked) [Example 6, 2-[5-(4-Methoxy-phenyl)-1-pyridin-2-yl-4,5-dihydro-1H-pyrazol-3-yl]-phenol] was 5.68 µM. The value for `Oc1ccccc1C1=NN(c2ccccn2)C(c2ccccn2)C1` (centres unmarked) [Example 8, 2-(1,5-Di-pyridin-2-yl-4,5-dihydro-1H-pyrazol-3-yl)-phenol] was 5.4 µM; that for `Oc1ccccc1C1=NN(c2nc3ccccc3s2)C(c2ccccc2)C1` (centres unmarked) [Example 4, 2-(1-Benzothiazol-2-yl-5-phenyl-4,5-dihydro-1H-pyrazol-3-yl)-phenol] was 27 µM. Take `Oc1ccccc1C1=NN(c2ccccn2)C(c2ccccc2)C1` (centres unmarked) [Example 3, 2-(5-Phenyl-1-pyridin-2-yl-4,5-dihydro-1H-pyrazol-3-yl)-phenol]: the EC50 came out at 1.7 µM.
